# Results as given in patent US10626126B2, “Compounds” (Pulmocide Limited, priority 2016, dated 2020).
# Entries after “also recorded” stand apart in the source; their conditions may differ.
# What was measured:
# RSV A2 strain = assay: RSV A2 induced CPE in HEp2 cells; assay type: cell-based; conditions: human respiratory syncytial virus
# How it was run: (§1)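 HEp2 cells in 5% FBS-DMEM were seeded one day before infection, then virus and compound were added together (0.5% DMSO final). A fluorogenic viability dye was added for a further 6 h at 37 °C, and fluorescence was read at 545/590 nm. Percent inhibition gave IC50, IC75 and IC90 from concentration-response curves.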
# RSV NS-1 gene = assay: RSV infection in cotton rats: RSV NS-1 gene expression in lung (qRT-PCR); assay type: in vivo, Sigmodon hispidus cotton rats; conditions: intranasal
# [1] = Cell viability: resazurin assay; assay type: cell-based; conditions: human, HEp2 cells
# RANTES gene = assay: RSV infection in cotton rats: RANTES gene expression in lung (qRT-PCR); conditions: intranasal
# Protocol: (§2) Male Sigmodon hispidus cotton rats between 6 and 8 weeks of age were infected with hRSV/A/Long (ATCC, Manassas, Va.; 10^5 pfu) in a volume of 0.1 mL of sucrose stabilizing media. Test compounds were dissolved in 100% DMSO (at 3.3, 10, 33 and 100 mg/mL), then diluted (1:10 in isotonic saline to achieve 10% DMSO in all treatments) and sonicated to produce suspensions which were administered intranasally (50 μL) by pipette 4 hr before infection (on day 0), and then on days 1, 2 and 3 post infection. Four days after RSV challenge, the animals were euthanised and the lungs removed.
# Total RNA was also extracted from homogenized lung tissue (RNeasy purification kit; Qiagen) and a sample (1 μg) used to prepare cDNA using QuantiTect Reverse Transcription Kit (Qiagen). For real-time PCR reactions (RSV NS-1 and RANTES genes) the QuantiFast SYBR® Green PCR Kit (Qiagen) was used in a final volume of 25 μL, with final primer concentrations of 0.5 μM. Amplifications were performed on a Bio-Rad iCycler for 1 cycle of 950C for 3 min, followed by 40 cycles of 950C for 10 sec, 600C for 10 sec, and 720C for 15 sec. Baseline cycles and cycle threshold (Ct) were calculated by the iQ5 software in the PCR Base Line Subtracted Curve Fit mode.
# The standard curves were developed using the serially diluted cDNA sample most enriched in the transcript of interest (e.g., lungs from day 4 post-primary RSV infection). The Ct values were plotted against log10 cDNA dilution factor and the curves were used to convert the Ct values obtained for different samples to relative expression units, which were then normalized against the level of R-actin mRNA (“housekeeping gene”) expressed in the corresponding sample. The mRNA levels were expressed as the geometric mean±SEM for all animals in a group.
# RSV A2 [2] = assay: Virus titre in air-liquid interface (ALI) cultured bronchial epithelial cells; conditions: for Virus titre in apical wash, geometric mean: late intervention (days 3-7), 0.1 mg/mL
# Protocol: ALI cultured human bronchial epithelial cells were sourced from Epithelix Sarl (Geneva, Switzerland) and maintained by changing the basal media every 3-4 days, whilst the apical surface was washed once weekly with PBS. On day 0, the apical surface of each well was washed once with sterile PBS (300 μL) and the inserts transferred to new 24-well plates containing fresh MucilAir culture medium (780 μL; EP04MM). RSV A2 (50 μL; diluted in MucilAir culture medium to give a final MOI of 0.01) was added to cells for one hr (37° C./5% CO2). For the purposes of standardizing MOI calculations, each MucilAir insert was estimated to contain 2×10^5 apical facing cells per well. Virus inoculum was removed with a pipette and inserts were washed twice with sterile PBS (300 μL).
# Sampling was conducted by adding sterile PBS (300 μL) to the apical surface of each well for 5 min. The apical sample was then removed and transferred to tubes containing 50% sucrose dissolved in PBS (100 μL) before being stored at −80° C. This harvesting procedure was repeated daily beginning on day 0 and concluding on day 10.
# The test compound (50 μL in 0.5% DMSO/PBS) was added to the apical surface and incubated (37° C./5% CO2) for 1 hr before being removed. Vehicle treatments (0.5% DMSO/PBS) were performed on the corresponding apical surfaces to ensure each well received the same number of manipulations. On day 5, the basal media was removed from each well and replenished with fresh MucilAir culture media as a necessary maintenance step for ALI culture cells.
# Virus titre was quantified by plaque assay. HEp2 cells were grown in 24-well plates (Corning) for 48 hr prior to infection in DMEM containing 10% FBS until they attained 100% confluency.
# Collected samples were thawed at RT and ten-fold serial dilutions were prepared in serum-free DMEM. The growth medium from HEp2 cells was aspirated and replaced with 300 μL of serially diluted virus collections and left to infect at 37° C./5% CO2 for 4 hr. The infectious media was aspirated and replaced with 1 mL Plaque Assay Overlay (0.3% Avicel RC-591 (FMC Biopolymer UK, Girvan, Scotland)) in MEM, supplemented to a final concentration of 2% FCS), and left for 7 days at 37° C./5% CO2. Cells were fixed with ice-cold methanol for 10 min, then removed and cells subjected to two washes with sterile PBS. Cells were then stained with crystal violet solution (200 μL 0.1%, in distilled water) for 1 hr. Crystal violet solution was removed and cells rinsed with water before plaques were counted and virus titre enumerated.
# RSV A2 [3] = assay: RSV F protein expression in BEAS2B bronchial epithelial cells; assay type: cell-based; conditions: human respiratory syncytial virus, BEAS-2B, n=2
# Protocol: An early event which follows the infection of epithelial cells by RSV is the expression of RSV F-protein on the cells' surface. BEAS2B cells were grown in 96 well plates. […] Supernatant was aspirated and the cells were fixed with 4% formaldehyde (100 μL in PBS solution) for 20 min, washed 3 times with washing buffer (200 μL; PBS containing 0.05% Tween-20) and incubated with blocking solution (100 μL; 5% BSA in washing buffer) for 1 hr. […] No. ab43812, Abcam plc, Cambridge, UK) F-fusion protein antibody (50 μL; prepared at a 1:2000 dilution in 5% BSA/washing buffer). After washing, cells were incubated with an HRP-conjugated anti-mouse IgG antibody (50 μL prepared at a 1:2000 dilution in 5% BSA in PBS; lot 00095437, Cat. No. P0447, Dako UK Ltd, Cambridgeshire, UK) for 1 hr. […] The resultant signal was determined colourimetrically (OD: 450 nm with a reference wavelength of 655 nm) in a microplate reader (Multiskan FC®, ThermoFisher Scientific). […] After washing with PBS (200 μL) 2 times, 1% SDS (100 μL) was added to each well, and plates were shaken lightly for 1 hr prior to reading the absorbance at 595 nm. The measured OD450-655 readings were corrected for cell number by dividing the OD450-655 by the OD595 readings. The percentage inhibition for each well was calculated and the IC50 value derived from the concentration-response curve generated for each test compound.
# RSV B Washington strain = assay: RSV B induced CPE in HEp2 cells; assay type: cell-based; conditions: human respiratory syncytial virus
# How it was run: as §1
# hRSV/A/Long = assay: RSV infection in cotton rats: viral titre in lung (plaque assay); conditions: intranasal; for Virus titre in lung, Geometric Mean / Virus titre in lung, Median: day 4 post infection
# Protocol: as §2
# The supernatants of lung homogenates were diluted 1:10 and 1:100 in Eagle (E)-MEM. Confluent HEp2 monolayers in 24-well plates were infected in duplicate (50 μL of sample per well) starting with undiluted (neat) samples followed by diluted homogenates. After incubation for 1 hr (37° C./5% CO2) wells were overlaid with 0.75% methylcellulose medium and plates replaced in the 37° C. incubator. After incubation (for 4 days), the overlay was removed, the cells fixed with 0.1% crystal violet stain (for 1 hr) and then rinsed and air-dried. Plaques were counted and viral titers were expressed as plaque forming units per gram (pfu.g^−1) of tissue.
smiles,measurement,setting,value
"Cc1cnc(N2CC3(CCOCC3)C2)c(C(=O)Nc2ccc(C(=O)N3CCc4cc(C(=O)Nc5c(F)cccc5F)sc4-c4sccc43)cc2)c1 [Example 1, N-(2,6-Difluorophenyl)-4-(4-(5-methyl-2-(7-oxa-2-azaspiro[3.5]nonan-2-yl)nicotinamido)benzoyl)-5,6-dihydro-4H-dithieno[3,2-b:2′,3′-d]azepine-8-carboxamide]",IC50,"RSV A2 strain; HEp-2, 120 h, 5 days",0.11 nM
same,inhibition at 0.01 µg/mL,"RSV A2 strain; HEp-2, at 0.01 μg/mL",100%
same,inhibition of RSV NS-1 gene transcripts (in words),RSV NS-1 gene,dose-dependent inhibition
same,RSV NS1 gene transcript % inhibition,RSV NS-1 gene; 0.33 mg/mL,−42%
same,"RSV NS1 gene transcript (/β-actin), Median",RSV NS-1 gene; 0.33 mg/mL,4.4
same,RSV NS1 gene transcript % inhibition,RSV NS-1 gene; 1.0 mg/mL,39%
same,"RSV NS1 gene transcript (/β-actin), Median",RSV NS-1 gene; 1.0 mg/mL,1.9
same,RSV NS1 gene transcript % inhibition,RSV NS-1 gene; 3.3 mg/mL,48%
same,"RSV NS1 gene transcript (/β-actin), Median",RSV NS-1 gene; 3.3 mg/mL,1.6
same,RSV NS1 gene transcript % inhibition,RSV NS-1 gene; 10 mg/mL,68%
same,"RSV NS1 gene transcript (/β-actin), Median",RSV NS-1 gene; 10 mg/mL,1.0
same,CC50 at 5 days,[1],> 13800 nM
same,inhibition of RANTES transcripts in lung (in words),RANTES gene,dose-dependent inhibition
same,RANTES gene transcript % Inhibition,RANTES gene; 0.33 mg/mL,−8%
same,"RANTES gene transcript (/β-actin), Median",RANTES gene; 0.33 mg/mL,3.9
same,RANTES gene transcript % Inhibition,RANTES gene; 1.0 mg/mL,36%
same,"RANTES gene transcript (/β-actin), Median",RANTES gene; 1.0 mg/mL,2.3
same,RANTES gene transcript % Inhibition,RANTES gene; 3.3 mg/mL,36%
same,"RANTES gene transcript (/β-actin), Median",RANTES gene; 3.3 mg/mL,2.3
same,RANTES gene transcript % Inhibition,RANTES gene; 10 mg/mL,61%
same,"RANTES gene transcript (/β-actin), Median",RANTES gene; 10 mg/mL,1.4
same,"Virus titre in apical wash, geometric mean",RSV A2 [2]; day 0,0 log PFU/mL
same,"Virus titre in apical wash, geometric mean",RSV A2 [2]; day 1,2.14 log PFU/mL
same,"Virus titre in apical wash, geometric mean",RSV A2 [2]; day 2,3.05 log PFU/mL
same,"Virus titre in apical wash, geometric mean",RSV A2 [2]; day 3,5.18 log PFU/mL
same,"Virus titre in apical wash, geometric mean",RSV A2 [2]; day 4,3.55 log PFU/mL
same,"Virus titre in apical wash, geometric mean",RSV A2 [2]; day 5,3.68 log PFU/mL
same,"Virus titre in apical wash, geometric mean",RSV A2 [2]; day 6,2.24 log PFU/mL
same,"Virus titre in apical wash, geometric mean",RSV A2 [2]; day 7,1.71 log PFU/mL
same,inhibition of virus titre in ALI culture (in words),RSV A2 [2]; late stage intervention,completely inhibited virus titre
same,IC50,RSV A2 [3],0.021 nM
same,IC90,RSV A2 [3],0.078 nM
same,IC50,"RSV B Washington strain; HEp-2, 144 h, 6 days",9 nM
same,inhibition at 0.1 µg/mL,"RSV B Washington strain; HEp-2, at 0.1 μg/mL",100%
same,"Virus titre in lung, Geometric Mean",hRSV/A/Long; 0.1 mg/mL,"5.4 log, PFU/lung"
same,"Virus titre in lung, Median",hRSV/A/Long; 0.1 mg/mL,"5.4 log, PFU/lung"
same,"Virus titre in lung, Geometric Mean",hRSV/A/Long; 0.33 mg/mL,"5.0 log, PFU/lung"
same,"Virus titre in lung, Median",hRSV/A/Long; 0.33 mg/mL,"5.0 log, PFU/lung"
same,"Virus titre in lung, Geometric Mean",hRSV/A/Long; 1.0 mg/mL,"4.3 log, PFU/lung"
same,"Virus titre in lung, Median",hRSV/A/Long; 1.0 mg/mL,"4.3 log, PFU/lung"
same,"Virus titre in lung, Geometric Mean",hRSV/A/Long; 3.3 mg/mL,"<2.3^2 log, PFU/lung"
same,"Virus titre in lung, Median",hRSV/A/Long; 3.3 mg/mL,"<2.3 log, PFU/lung"
same,inhibition of viral titre in lung homogenates (in words),hRSV/A/Long; RSV/A/Long infected cotton rats,potent dose-dependent inhibition of viral titre; also recorded: completely inhibited virus titre
